# Results as given in the kinase profiling compilation of Christmann-Franck et al. (2016).
# pKd: −log10 of the molar value.
# What was measured:
# Assay in all cases: KINOMEscan competition binding
# ADCK4 (human) = ADCK4 (human) (UniProt Q96D53); conditions: compound 1.0 µM
# AXL (human) = AXL (human) (UniProt P30530); conditions: compound 1.0 µM
# BMPR2 (human) = BMPR2 (human) (UniProt Q13873); conditions: compound 1.0 µM
# CAMK1D (human) = CAMK1D (human) (UniProt Q8IU85); conditions: compound 1.0 µM
# CDK4 CCND1 (human) = CDK4 CCND1 (human) (UniProt P11802+P24385); conditions: compound 1.0 µM
# CDK5 (human) = CDK5 (human) (UniProt Q00535); conditions: compound 1.0 µM
# CDK9 (human) = CDK9 (human) (UniProt P50750); conditions: compound 1.0 µM
# CDKL2 (human) = CDKL2 (human) (UniProt Q92772); conditions: compound 1.0 µM
# CDKL3 (human) = CDKL3 (human) (UniProt Q8IVW4); conditions: compound 1.0 µM
# CSNK1A1 (human) = CSNK1A1 (human) (UniProt P48729); conditions: compound 1.0 µM
# CSNK2A1 (human) = CSNK2A1 (human) (UniProt P68400); conditions: compound 1.0 µM
# DCLK3 (human) = DCLK3 (human) (UniProt Q9C098); conditions: compound 1.0 µM
# [1] = tested on: EGFR (human), P00533 [T790M/L858R]; conditions: compound 1.0 µM
# EPHA6 (human) = EPHA6 (human) (UniProt Q9UF33); conditions: compound 1.0 µM
# ERBB2 (human) = ERBB2 (human) (UniProt P04626)
# Chain of ERBB2 (human) (P04626 whole entry, looked up): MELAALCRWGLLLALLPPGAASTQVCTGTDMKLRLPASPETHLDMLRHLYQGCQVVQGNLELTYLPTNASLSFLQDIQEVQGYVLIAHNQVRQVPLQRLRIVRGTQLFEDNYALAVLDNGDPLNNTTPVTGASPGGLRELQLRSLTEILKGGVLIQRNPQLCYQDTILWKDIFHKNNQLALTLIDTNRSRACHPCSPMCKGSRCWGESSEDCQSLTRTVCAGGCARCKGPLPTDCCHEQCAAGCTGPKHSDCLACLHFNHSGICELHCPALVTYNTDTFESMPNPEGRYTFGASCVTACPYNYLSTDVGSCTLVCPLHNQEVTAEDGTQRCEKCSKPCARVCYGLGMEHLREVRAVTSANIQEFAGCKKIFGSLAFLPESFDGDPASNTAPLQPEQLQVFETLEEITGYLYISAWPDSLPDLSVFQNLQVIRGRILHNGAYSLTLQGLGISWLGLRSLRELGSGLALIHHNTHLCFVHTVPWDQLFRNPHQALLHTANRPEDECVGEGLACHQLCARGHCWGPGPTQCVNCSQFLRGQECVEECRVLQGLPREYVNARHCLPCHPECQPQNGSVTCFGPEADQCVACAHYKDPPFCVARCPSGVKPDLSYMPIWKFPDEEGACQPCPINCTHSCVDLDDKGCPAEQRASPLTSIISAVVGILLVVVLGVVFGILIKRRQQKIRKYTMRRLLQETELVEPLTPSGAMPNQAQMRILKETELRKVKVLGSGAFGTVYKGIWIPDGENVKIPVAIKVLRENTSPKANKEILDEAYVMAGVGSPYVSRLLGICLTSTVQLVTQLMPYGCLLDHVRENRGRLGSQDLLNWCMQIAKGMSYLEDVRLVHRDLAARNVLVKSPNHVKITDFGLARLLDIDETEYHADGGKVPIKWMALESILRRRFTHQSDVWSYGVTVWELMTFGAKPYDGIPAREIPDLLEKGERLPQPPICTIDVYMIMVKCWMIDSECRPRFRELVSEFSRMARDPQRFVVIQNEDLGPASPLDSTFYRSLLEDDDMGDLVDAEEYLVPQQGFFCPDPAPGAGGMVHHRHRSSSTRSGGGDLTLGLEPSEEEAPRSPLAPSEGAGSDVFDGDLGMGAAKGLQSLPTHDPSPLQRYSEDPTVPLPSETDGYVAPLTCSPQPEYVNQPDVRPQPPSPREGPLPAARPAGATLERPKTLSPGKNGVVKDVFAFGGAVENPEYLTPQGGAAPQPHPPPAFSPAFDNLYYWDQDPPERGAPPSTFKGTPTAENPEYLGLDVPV
# [2] = tested on: FGFR3 (human), P22607 [G697C]; conditions: compound 1.0 µM
# Chain of FGFR3 (human), P22607 [G697C] (P22607 whole entry G697C, looked up): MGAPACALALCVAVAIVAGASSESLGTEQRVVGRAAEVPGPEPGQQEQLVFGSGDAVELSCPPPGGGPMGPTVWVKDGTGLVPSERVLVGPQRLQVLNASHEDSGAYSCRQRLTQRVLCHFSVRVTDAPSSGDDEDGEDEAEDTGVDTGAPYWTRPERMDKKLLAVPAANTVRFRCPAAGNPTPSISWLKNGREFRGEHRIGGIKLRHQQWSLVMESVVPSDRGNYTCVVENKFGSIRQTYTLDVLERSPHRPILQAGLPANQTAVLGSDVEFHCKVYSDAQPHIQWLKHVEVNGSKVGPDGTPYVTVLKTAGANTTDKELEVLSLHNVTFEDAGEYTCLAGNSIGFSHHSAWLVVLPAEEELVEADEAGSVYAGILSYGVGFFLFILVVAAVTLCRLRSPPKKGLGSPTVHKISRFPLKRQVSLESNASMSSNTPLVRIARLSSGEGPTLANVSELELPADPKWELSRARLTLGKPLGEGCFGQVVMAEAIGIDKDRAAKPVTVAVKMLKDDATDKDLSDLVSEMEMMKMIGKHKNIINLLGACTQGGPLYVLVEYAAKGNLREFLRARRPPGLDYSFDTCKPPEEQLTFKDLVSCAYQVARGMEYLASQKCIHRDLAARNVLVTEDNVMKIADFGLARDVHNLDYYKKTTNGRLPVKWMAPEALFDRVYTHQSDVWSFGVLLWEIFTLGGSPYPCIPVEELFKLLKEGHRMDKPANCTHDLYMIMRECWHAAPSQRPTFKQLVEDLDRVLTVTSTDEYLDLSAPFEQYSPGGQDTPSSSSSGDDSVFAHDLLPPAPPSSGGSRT
# HIPK1 (human) = HIPK1 (human) (UniProt Q86Z02); conditions: compound 1.0 µM
# IGF1R (human) = IGF1R (human) (UniProt P08069); conditions: compound 1.0 µM
# IRAK1 (human) = IRAK1 (human) (UniProt P51617); conditions: compound 1.0 µM
# IRAK4 (human) = IRAK4 (human) (UniProt Q9NWZ3); conditions: compound 1.0 µM
# MAP2K4 (human) = MAP2K4 (human) (UniProt P45985); conditions: compound 1.0 µM
# MAPK1 (human) = MAPK1 (human) (UniProt P28482); conditions: compound 1.0 µM
# Chain of MAPK1 (human) (P28482 whole entry, looked up): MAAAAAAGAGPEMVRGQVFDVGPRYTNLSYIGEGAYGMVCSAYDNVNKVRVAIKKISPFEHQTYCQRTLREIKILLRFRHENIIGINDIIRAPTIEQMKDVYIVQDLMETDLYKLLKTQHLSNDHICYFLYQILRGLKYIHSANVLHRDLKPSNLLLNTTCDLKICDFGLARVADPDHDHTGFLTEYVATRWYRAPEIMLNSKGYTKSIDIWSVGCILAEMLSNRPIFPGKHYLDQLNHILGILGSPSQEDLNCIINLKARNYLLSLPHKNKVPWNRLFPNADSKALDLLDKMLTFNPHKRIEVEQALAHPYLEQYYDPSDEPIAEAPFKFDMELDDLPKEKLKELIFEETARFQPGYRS
# MAPK15 (human) = MAPK15 (human) (UniProt Q8TD08); conditions: compound 1.0 µM
# NEK4 (human) = NEK4 (human) (UniProt P51957); conditions: compound 1.0 µM
# NEK9 (human) = NEK9 (human) (UniProt Q8TD19); conditions: compound 1.0 µM
# [3] = tested on: PIK3CA (human), P42336 [C420R]; conditions: compound 1.0 µM
# Chain of PIK3CA (human), P42336 [C420R] (P42336 whole entry C420R, looked up): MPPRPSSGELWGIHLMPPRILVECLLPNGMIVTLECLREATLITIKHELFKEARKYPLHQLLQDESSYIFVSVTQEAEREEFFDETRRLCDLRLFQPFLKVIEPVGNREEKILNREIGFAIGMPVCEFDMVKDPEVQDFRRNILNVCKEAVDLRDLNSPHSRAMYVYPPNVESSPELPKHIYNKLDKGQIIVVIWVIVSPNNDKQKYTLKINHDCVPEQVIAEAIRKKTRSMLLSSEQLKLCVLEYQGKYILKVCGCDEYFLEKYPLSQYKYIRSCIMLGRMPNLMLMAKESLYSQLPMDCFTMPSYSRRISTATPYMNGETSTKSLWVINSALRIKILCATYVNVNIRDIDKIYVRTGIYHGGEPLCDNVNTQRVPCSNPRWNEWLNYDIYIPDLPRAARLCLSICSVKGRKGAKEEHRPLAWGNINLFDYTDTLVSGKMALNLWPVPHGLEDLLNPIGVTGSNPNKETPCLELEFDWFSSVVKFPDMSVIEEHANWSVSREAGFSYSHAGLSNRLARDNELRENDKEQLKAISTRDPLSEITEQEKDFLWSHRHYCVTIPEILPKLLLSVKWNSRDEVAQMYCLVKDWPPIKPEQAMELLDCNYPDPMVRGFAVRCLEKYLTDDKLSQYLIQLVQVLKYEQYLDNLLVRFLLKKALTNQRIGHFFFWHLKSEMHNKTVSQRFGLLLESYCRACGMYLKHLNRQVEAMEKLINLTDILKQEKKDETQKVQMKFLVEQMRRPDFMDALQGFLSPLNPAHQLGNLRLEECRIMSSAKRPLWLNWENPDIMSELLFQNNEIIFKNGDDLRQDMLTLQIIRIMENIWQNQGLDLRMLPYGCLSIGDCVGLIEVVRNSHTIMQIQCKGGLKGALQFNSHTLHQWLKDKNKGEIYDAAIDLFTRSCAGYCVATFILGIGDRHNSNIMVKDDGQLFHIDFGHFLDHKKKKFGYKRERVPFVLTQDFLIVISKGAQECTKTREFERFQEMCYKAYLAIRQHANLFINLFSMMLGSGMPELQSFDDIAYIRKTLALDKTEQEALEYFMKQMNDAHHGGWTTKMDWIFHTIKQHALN
# [4] = tested on: PIK3CA (human), P42336 [E545K]; conditions: compound 1.0 µM
# Chain of PIK3CA (human), P42336 [E545K] (P42336 whole entry E545K, looked up): as the sequence (P42336 whole entry C420R, looked up) above, with R420C, E545K counted along it
# PKN2 (human) = PKN2 (human) (UniProt Q16513); conditions: compound 1.0 µM
# PKN3 (M.tuberculosis) = PKN3 (M.tuberculosis) (UniProt Q6P5Z2); conditions: compound 1.0 µM
# PRKAA2 (human) = PRKAA2 (human) (UniProt P54646); conditions: compound 1.0 µM
# PRKCH (human) = PRKCH (human) (UniProt P24723); conditions: compound 1.0 µM
# PTK2 (human) = PTK2 (human) (UniProt Q05397); conditions: compound 1.0 µM
# RAF1 (human) = RAF1 (human) (UniProt P04049); conditions: compound 1.0 µM
# RET (human) = RET (human) (UniProt P07949); conditions: compound 1.0 µM
# RIOK3 (human) = RIOK3 (human) (UniProt O14730); conditions: compound 1.0 µM
# ROCK1 (human) = ROCK1 (human) (UniProt Q13464); conditions: compound 1.0 µM
# Chain of ROCK1 (human) (Q13464 whole entry, looked up): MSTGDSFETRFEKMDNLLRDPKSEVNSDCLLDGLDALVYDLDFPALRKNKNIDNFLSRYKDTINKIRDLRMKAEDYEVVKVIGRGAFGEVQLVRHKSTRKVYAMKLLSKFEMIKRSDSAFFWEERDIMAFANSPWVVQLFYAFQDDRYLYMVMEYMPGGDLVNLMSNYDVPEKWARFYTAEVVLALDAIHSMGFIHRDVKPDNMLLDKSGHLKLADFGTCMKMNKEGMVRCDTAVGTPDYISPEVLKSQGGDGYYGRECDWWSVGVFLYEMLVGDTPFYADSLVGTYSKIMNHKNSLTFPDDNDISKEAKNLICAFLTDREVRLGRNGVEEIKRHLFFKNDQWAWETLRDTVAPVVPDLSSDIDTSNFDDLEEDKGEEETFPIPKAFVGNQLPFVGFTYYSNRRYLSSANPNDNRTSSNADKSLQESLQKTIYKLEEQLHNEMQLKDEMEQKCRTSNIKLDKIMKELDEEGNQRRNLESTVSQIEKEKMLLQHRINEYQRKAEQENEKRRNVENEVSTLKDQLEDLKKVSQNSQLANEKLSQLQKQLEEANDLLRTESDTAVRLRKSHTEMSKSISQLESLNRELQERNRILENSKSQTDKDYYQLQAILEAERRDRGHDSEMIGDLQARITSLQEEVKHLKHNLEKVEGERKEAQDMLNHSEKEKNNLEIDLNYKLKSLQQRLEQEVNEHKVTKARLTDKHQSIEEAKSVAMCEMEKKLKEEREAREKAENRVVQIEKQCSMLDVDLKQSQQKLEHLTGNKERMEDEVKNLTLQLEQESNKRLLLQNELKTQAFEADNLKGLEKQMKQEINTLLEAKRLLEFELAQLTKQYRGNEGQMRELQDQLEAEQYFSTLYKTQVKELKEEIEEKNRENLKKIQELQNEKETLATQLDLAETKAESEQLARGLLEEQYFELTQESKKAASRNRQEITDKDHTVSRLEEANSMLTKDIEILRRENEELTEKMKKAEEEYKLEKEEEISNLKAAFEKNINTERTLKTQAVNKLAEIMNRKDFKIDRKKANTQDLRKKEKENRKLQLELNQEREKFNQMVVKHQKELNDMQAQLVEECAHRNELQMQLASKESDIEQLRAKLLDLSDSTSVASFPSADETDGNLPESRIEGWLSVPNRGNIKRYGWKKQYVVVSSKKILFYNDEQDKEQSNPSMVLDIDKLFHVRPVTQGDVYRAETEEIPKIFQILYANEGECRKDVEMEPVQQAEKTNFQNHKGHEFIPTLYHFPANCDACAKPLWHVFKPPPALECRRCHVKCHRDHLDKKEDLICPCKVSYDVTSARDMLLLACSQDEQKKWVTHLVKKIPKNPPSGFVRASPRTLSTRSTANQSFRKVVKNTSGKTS
# RPS6KA2 KD1 (human) = RPS6KA2 KD1 (human) (UniProt Q15349); conditions: compound 1.0 µM
# RPS6KB1 (human) = RPS6KB1 (human) (UniProt P23443); conditions: compound 1.0 µM
# STK4 (human) = STK4 (human) (UniProt Q13043); conditions: compound 1.0 µM
# TRPM6 (human) = TRPM6 (human) (UniProt Q9BX84); conditions: compound 1.0 µM
# ULK3 (human) = ULK3 (human) (UniProt Q6PHR2); conditions: compound 1.0 µM
# YSK4 (human) = YSK4 (human) (UniProt Q56UN5); conditions: compound 1.0 µM
compound,measurement,setting,value
CN(C)C/C=C/C(=O)Nc1cccc(C(=O)Nc2ccc(Nc3nccc(-c4c(-c5ccccc5)nn5ccccc45)n3)cc2)c1,"kinase still bound, per cent of control",ADCK4 (human),0%
same,"kinase still bound, per cent of control",AXL (human),58%
same,"kinase still bound, per cent of control",BMPR2 (human),100%
same,"kinase still bound, per cent of control",CAMK1D (human),100%
same,"kinase still bound, per cent of control",CDK4 CCND1 (human),79%
same,"kinase still bound, per cent of control",CDK5 (human),100%
same,"kinase still bound, per cent of control",CDK9 (human),100%
same,"kinase still bound, per cent of control",CDKL2 (human),74%
same,"kinase still bound, per cent of control",CDKL3 (human),100%
same,"kinase still bound, per cent of control",CSNK1A1 (human),2%
same,"kinase still bound, per cent of control",CSNK2A1 (human),74%
same,"kinase still bound, per cent of control",DCLK3 (human),86%
same,"kinase still bound, per cent of control",[1],36%
same,"kinase still bound, per cent of control",EPHA6 (human),32%
same,pKd,ERBB2 (human),6.64
same,"kinase still bound, per cent of control",ERBB2 (human); compound 1.0 µM,0.4%
same,"kinase still bound, per cent of control",[2],93%
same,"kinase still bound, per cent of control",HIPK1 (human),100%
same,"kinase still bound, per cent of control",IGF1R (human),100%
same,"kinase still bound, per cent of control",IRAK1 (human),2%
same,"kinase still bound, per cent of control",IRAK4 (human),84%
same,"kinase still bound, per cent of control",MAP2K4 (human),100%
same,"kinase still bound, per cent of control",MAPK1 (human),100%
same,"kinase still bound, per cent of control",MAPK15 (human),93%
same,"kinase still bound, per cent of control",NEK4 (human),100%
same,"kinase still bound, per cent of control",NEK9 (human),100%
same,"kinase still bound, per cent of control",[3],100%
same,"kinase still bound, per cent of control",[4],100%
same,"kinase still bound, per cent of control",PKN2 (human),100%
same,"kinase still bound, per cent of control",PKN3 (M.tuberculosis),100%
same,"kinase still bound, per cent of control",PRKAA2 (human),90%
same,"kinase still bound, per cent of control",PRKCH (human),100%
same,"kinase still bound, per cent of control",PTK2 (human),95%
same,"kinase still bound, per cent of control",RAF1 (human),83%
same,"kinase still bound, per cent of control",RET (human),8.3%
same,"kinase still bound, per cent of control",RIOK3 (human),97%
same,"kinase still bound, per cent of control",ROCK1 (human),59%
same,"kinase still bound, per cent of control",RPS6KA2 KD1 (human),86%
same,"kinase still bound, per cent of control",RPS6KB1 (human),83%
same,"kinase still bound, per cent of control",STK4 (human),4.2%
same,"kinase still bound, per cent of control",TRPM6 (human),100%
same,"kinase still bound, per cent of control",ULK3 (human),84%
same,"kinase still bound, per cent of control",YSK4 (human),62%
